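48-hour exposure; five concentrations; linearly interpolated endpoints. TGI denotes the concentration required for complete inhibition of growth.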
Assays:
Experiment in all cases: NCI anticancer screen, dose series, 48 h
NCI-H460 lung = tested on: NCI-H460 lung
RXF 393 renal = tested on: RXF 393 renal
SK-OV-3 ovarian = tested on: SK-OV-3 ovarian
786-0 renal = tested on: 786-0 renal
LOX IMVI melanoma = tested on: LOX IMVI melanoma
M14 melanoma = tested on: M14 melanoma
RXF-631 renal = tested on: RXF-631 renal
OVCAR-5 ovarian = tested on: OVCAR-5 ovarian
TK-10 renal = tested on: TK-10 renal
LXFL 529 NSCLC = tested on: LXFL 529 NSCLC
UACC-62 melanoma = tested on: UACC-62 melanoma
SF-295 CNS = tested on: SF-295 CNS
SK-MEL-5 melanoma = tested on: SK-MEL-5 melanoma
A549 NSCLC = tested on: A549 NSCLC
RPMI-8226 leukemia = tested on: RPMI-8226 leukemia
CCRF-CEM leukemia = tested on: CCRF-CEM leukemia
MALME-3M melanoma = tested on: MALME-3M melanoma
SF-539 CNS = tested on: SF-539 CNS
SF-268 CNS = tested on: SF-268 CNS
CAKI-1 renal = tested on: CAKI-1 renal
SR leukemia = tested on: SR leukemia
NCI-H23 lung = tested on: NCI-H23 lung
SNB-19 CNS = tested on: SNB-19 CNS
KM20L2 colon = tested on: KM20L2 colon
HCC-2998 colon = tested on: HCC-2998 colon
NCI-H522 lung = tested on: NCI-H522 lung
IGROV1 ovarian = tested on: IGROV1 ovarian
UACC-257 melanoma = tested on: UACC-257 melanoma
OVCAR-3 ovarian = tested on: OVCAR-3 ovarian
SK-MEL-28 melanoma = tested on: SK-MEL-28 melanoma
ACHN renal = tested on: ACHN renal
HCT-116 colon = tested on: HCT-116 colon
A498 renal = tested on: A498 renal
XF 498 CNS = tested on: XF 498 CNS
NCI-H226 lung = tested on: NCI-H226 lung
OVCAR-4 ovarian = tested on: OVCAR-4 ovarian
SNB-75 CNS = tested on: SNB-75 CNS
DU-145 prostate = tested on: DU-145 prostate
HOP-18 NSCLC = tested on: HOP-18 NSCLC
HT29 colon = tested on: HT29 colon
HOP-62 NSCLC = tested on: HOP-62 NSCLC
SW-620 colon = tested on: SW-620 colon
SNB-78 CNS = tested on: SNB-78 CNS
U251 CNS = tested on: U251 CNS
SN12C renal = tested on: SN12C renal
KM12 colon = tested on: KM12 colon
OVCAR-8 ovarian = tested on: OVCAR-8 ovarian
COLO 205 colon = tested on: COLO 205 colon
DLD-1 colon = tested on: DLD-1 colon
MOLT-4 leukemia = tested on: MOLT-4 leukemia
HOP-92 NSCLC = tested on: HOP-92 NSCLC
M19-MEL melanoma = tested on: M19-MEL melanoma
HCT-15 colon = tested on: HCT-15 colon
UO-31 renal = tested on: UO-31 renal
EKVX NSCLC = tested on: EKVX NSCLC
K-562 leukemia = tested on: K-562 leukemia
HL-60(TB) leukemia = tested on: HL-60(TB) leukemia
SK-MEL-2 melanoma = tested on: SK-MEL-2 melanoma
DMS 273 small cell lung = tested on: DMS 273 small cell lung
DMS 114 small cell lung = tested on: DMS 114 small cell lung

`CC(=O)OC[C@@H](COC(=O)/C=C/c1ccc(O)cc1)OC1OC(CO)C(O)C(O)C1O` (stereo partly specified) was tested, and the TGI (NCI-H460 lung) was > 100 µM, the TGI (RXF 393 renal) was > 100 µM and the TGI (SK-OV-3 ovarian) was > 100 µM. The TGI (786-0 renal) was > 100 µM, the TGI (LOX IMVI melanoma) was > 100 µM and the TGI (M14 melanoma) was > 100 µM. For the same compound, the TGI (RXF-631 renal) was > 100 µM, the TGI (OVCAR-5 ovarian) was > 100 µM and the TGI (TK-10 renal) was > 100 µM. The TGI (LXFL 529 NSCLC) was > 100 µM, the TGI (UACC-62 melanoma) was > 100 µM and the TGI (SF-295 CNS) was > 100 µM. For the same compound, the TGI (SK-MEL-5 melanoma) was > 100 µM, the TGI (A549 NSCLC) was > 100 µM and the TGI (RPMI-8226 leukemia) was > 100 µM. The TGI (CCRF-CEM leukemia) was > 100 µM, the TGI (MALME-3M melanoma) was > 100 µM and the TGI (SF-539 CNS) was > 100 µM. The TGI (SF-268 CNS) was > 100 µM, the TGI (CAKI-1 renal) was > 100 µM and the TGI (SR leukemia) was > 100 µM. For the same compound, the TGI (NCI-H23 lung) was > 100 µM, the TGI (SNB-19 CNS) was > 100 µM and the TGI (KM20L2 colon) was > 100 µM. The TGI (HCC-2998 colon) was > 100 µM, the TGI (NCI-H522 lung) was > 100 µM and the TGI (IGROV1 ovarian) was > 100 µM. The TGI (UACC-257 melanoma) was > 100 µM, the TGI (OVCAR-3 ovarian) was > 100 µM and the TGI (SK-MEL-28 melanoma) was > 100 µM. For the same compound, the TGI (ACHN renal) was > 100 µM, the TGI (HCT-116 colon) was > 100 µM and the TGI (A498 renal) was > 100 µM. For the same compound, the TGI (XF 498 CNS) was > 100 µM, the TGI (NCI-H226 lung) was > 100 µM and the TGI (OVCAR-4 ovarian) was > 100 µM. The TGI (SNB-75 CNS) was > 100 µM, the TGI (DU-145 prostate) was > 100 µM and the TGI (HOP-18 NSCLC) was > 100 µM. For the same compound, the TGI (HT29 colon) was > 100 µM, the TGI (HOP-62 NSCLC) was > 100 µM and the TGI (SW-620 colon) was > 100 µM. The TGI (SNB-78 CNS) was > 100 µM, the TGI (U251 CNS) was > 100 µM and the TGI (SN12C renal) was > 100 µM. The TGI (KM12 colon) was > 100 µM, the TGI (OVCAR-8 ovarian) was > 100 µM and the TGI (COLO 205 colon) was > 100 µM. The TGI (DLD-1 colon) was > 100 µM, the TGI (MOLT-4 leukemia) was > 100 µM and the TGI (HOP-92 NSCLC) was > 100 µM. For the same compound, the TGI (M19-MEL melanoma) was > 100 µM, the TGI (HCT-15 colon) was > 100 µM and the TGI (UO-31 renal) was > 100 µM. For the same compound, the TGI (EKVX NSCLC) was > 100 µM, the TGI (K-562 leukemia) was > 100 µM and the TGI (HL-60(TB) leukemia) was > 100 µM. For the same compound, the TGI (SK-MEL-2 melanoma) was > 100 µM.
In the case of `O=c1c(Br)cc2nc3ccccc3sc-2c1Br`, the TGI (NCI-H460 lung) was > 100 µM, the TGI (RXF 393 renal) was > 100 µM and the TGI (SK-OV-3 ovarian) was > 100 µM. For the same compound, the TGI (786-0 renal) was 30.8 µM, the TGI (LOX IMVI melanoma) was > 100 µM and the TGI (M14 melanoma) was > 100 µM. For the same compound, the TGI (RXF-631 renal) was > 100 µM, the TGI (DMS 273 small cell lung) was > 100 µM and the TGI (OVCAR-5 ovarian) was > 100 µM. The TGI (TK-10 renal) was > 100 µM, the TGI (LXFL 529 NSCLC) was > 100 µM and the TGI (UACC-62 melanoma) was 79.8 µM. For the same compound, the TGI (SF-295 CNS) was > 100 µM, the TGI (SK-MEL-5 melanoma) was > 100 µM and the TGI (A549 NSCLC) was > 100 µM. The TGI (RPMI-8226 leukemia) was > 100 µM, the TGI (CCRF-CEM leukemia) was > 100 µM and the TGI (DMS 114 small cell lung) was 34.6 µM. The TGI (MALME-3M melanoma) was > 100 µM, the TGI (SF-539 CNS) was > 100 µM and the TGI (SF-268 CNS) was > 100 µM. The TGI (CAKI-1 renal) was > 100 µM, the TGI (SR leukemia) was > 100 µM and the TGI (NCI-H23 lung) was > 100 µM. For the same compound, the TGI (SNB-19 CNS) was > 100 µM, the TGI (KM20L2 colon) was > 100 µM and the TGI (HCC-2998 colon) was > 100 µM. The TGI (NCI-H522 lung) was 36.2 µM, the TGI (IGROV1 ovarian) was > 100 µM and the TGI (UACC-257 melanoma) was > 85.4 µM. For the same compound, the TGI (OVCAR-3 ovarian) was 32.5 µM, the TGI (SK-MEL-28 melanoma) was > 100 µM and the TGI (ACHN renal) was > 100 µM. For the same compound, the TGI (HCT-116 colon) was > 100 µM, the TGI (A498 renal) was > 100 µM and the TGI (XF 498 CNS) was 61.8 µM. For the same compound, the TGI (NCI-H226 lung) was > 100 µM, the TGI (OVCAR-4 ovarian) was > 70.9 µM and the TGI (SNB-75 CNS) was > 100 µM. The TGI (HT29 colon) was > 100 µM, the TGI (HOP-62 NSCLC) was > 100 µM and the TGI (SW-620 colon) was > 100 µM. For the same compound, the TGI (SNB-78 CNS) was > 100 µM, the TGI (U251 CNS) was > 100 µM and the TGI (SN12C renal) was > 100 µM. The TGI (KM12 colon) was > 100 µM, the TGI (OVCAR-8 ovarian) was 41.4 µM and the TGI (COLO 205 colon) was > 91 µM. For the same compound, the TGI (DLD-1 colon) was > 100 µM, the TGI (MOLT-4 leukemia) was > 65.8 µM and the TGI (HOP-92 NSCLC) was > 100 µM. For the same compound, the TGI (M19-MEL melanoma) was 32.4 µM, the TGI (HCT-15 colon) was > 100 µM and the TGI (UO-31 renal) was > 100 µM. For the same compound, the TGI (EKVX NSCLC) was > 100 µM, the TGI (K-562 leukemia) was 55.5 µM and the TGI (HL-60(TB) leukemia) was 38.9 µM. The TGI (SK-MEL-2 melanoma) was > 100 µM.

— PubChem BioAssay (NCI)
